Target: Kv1.3 voltage-gated K+ channel (Homo sapiens, UniProt P22001)
Assay type: cell-based

Sequence of Kv1.3 voltage-gated K+ channel (P22001 whole entry): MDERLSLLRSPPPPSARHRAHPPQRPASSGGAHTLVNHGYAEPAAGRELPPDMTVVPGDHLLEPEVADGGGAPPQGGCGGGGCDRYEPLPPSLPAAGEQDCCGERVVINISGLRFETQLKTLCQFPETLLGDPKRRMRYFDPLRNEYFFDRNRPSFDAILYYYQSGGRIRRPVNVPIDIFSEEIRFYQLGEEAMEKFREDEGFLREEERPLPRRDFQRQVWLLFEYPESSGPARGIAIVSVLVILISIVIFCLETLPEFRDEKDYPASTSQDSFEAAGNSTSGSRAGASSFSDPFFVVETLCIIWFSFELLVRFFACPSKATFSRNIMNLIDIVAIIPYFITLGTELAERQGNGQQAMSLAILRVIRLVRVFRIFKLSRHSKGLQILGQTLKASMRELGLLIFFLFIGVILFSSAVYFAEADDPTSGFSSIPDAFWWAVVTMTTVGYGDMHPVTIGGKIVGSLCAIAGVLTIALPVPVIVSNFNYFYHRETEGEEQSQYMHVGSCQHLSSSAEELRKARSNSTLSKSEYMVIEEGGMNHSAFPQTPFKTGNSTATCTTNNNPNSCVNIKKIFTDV

CC[N+](CC)(CC)CC [TEA+]
IC50: 10.3 ± 0.71 mM

— publication PMC7781520 (Channels, 2020)
